Source: patent publication US9896441B2 (Lycera Corporation, priority 2014, dated 2018)

What was measured:
Gal4-RORγ-LBD = biological target: T1, Gal4-RORγ-LBD (Homo sapiens, UniProt P51449); assay: Gal4-RORγ Luciferase Reporter Assay in HEK-293T Cells; type: cell-based; details: HEK-293 cells, luciferase reporter; for Gal4-RORγ Assay Max Response: maximum response
T1 construct: expressed in transfected cells
T1 sequence (P51449 269-508 limits assumed): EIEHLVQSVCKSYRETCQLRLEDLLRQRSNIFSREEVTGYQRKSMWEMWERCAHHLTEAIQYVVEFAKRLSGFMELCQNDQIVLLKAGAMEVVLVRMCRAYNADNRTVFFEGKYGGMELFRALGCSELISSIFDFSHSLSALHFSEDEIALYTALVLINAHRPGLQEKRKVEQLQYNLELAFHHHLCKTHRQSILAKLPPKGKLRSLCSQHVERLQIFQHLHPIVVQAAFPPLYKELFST
Outline: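 HEK-293 cells were co-transfected with Gal4-RORγ-LBD and a Gal4-luciferase reporter, then exposed overnight at 37 °C to compounds with […] ursolic acid present (0.2% DMSO). Luminescence was read with One-Glo after 10 min at RT, untreated signal was set as 100, and Max Response was taken as the upper plateau of a 4-parameter logistic fit.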

RORγ-LBD = biological target: T2, RORγ-LBD (Homo sapiens, UniProt P51449); assay: RORγ-Ligand Binding Domain (LBD) TR-FRET Assay; type: biochemical; details: for TR-FRET Assay Max Response: maximum response;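 on TR-FRET Assay Max Response: 665/615 nm signal ratio set to 100 without ursolic acid or test compound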
T2 construct: made in house; host or cells: SF9 cells (baculovirus); used as diluted lysate
T2 sequence (P51449 269-508 limits assumed): T1 sequence (P51449 269-508 limits assumed)
Outline: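 This TR-FRET coactivator assay pairs baculovirus-expressed His-RORγ-LBD (~3 nM final) with biotin-SRC1 LXXLL peptide at 200 nM final in pH 7.0 Tris/KCl/EDTA/DTT/BSA buffer.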

| SMILES | EC50 (Gal4-RORγ-LBD; with ursolic acid) [µM] | EC50 (RORγ-LBD; RORγ-LBD TR-FRET) [µM] | EC50 (Gal4-RORγ-LBD; in presence of ursolic acid) [µM] | Gal4-RORγ Assay Max Response (Gal4-RORγ-LBD; in presence of ursolic acid) | EC50 (RORγ-LBD; RORγ-LBD TR-FRET assay) [µM] | TR-FRET Assay Max Response (RORγ-LBD; RORγ-LBD TR-FRET assay) |
| --- | --- | --- | --- | --- | --- | --- |
| COC(=O)CC[C@H]1CN(S(=O)(=O)c2cccc(OC(F)F)c2)c2cc(/C=C/c3c(Cl)cccc3Cl)ccc2O1 [Example 89CS, methyl (S,E)-3-(6-(2,6-dichlorostyryl)-4-((3-(difluoromethoxy)phenyl)sulfonyl)-3,4-dihydro-2H-benzo[b][1,4]-oxazin-2-yl)propanoate] | < 0.5 | < 0.5 |  |  |  |  |
| C/C(=C\c1ccc2c(c1)N(S(=O)(=O)c1cccc(C(F)(F)F)c1)[C@H](C)[C@@H](O)C2)c1c(F)cccc1Cl (racemic) [Example 177, rac-(2R,3S)-7-((E)-2-(2-Chloro-6-fluorophenyl)prop-1-en-1-yl)-2-methyl-1-((3-(trifluoromethyl)phenyl)sulfonyl)-1,2,3,4-tetrahydroquinolin-3-ol] |  |  | 0.5 to 5 | ** (a value in the range of greater than 90 to 150) | < 0.5 | ** (a value in the range of greater than 90 to 150) |
| COc1cc(S(=O)(=O)N2CCCc3ccc(OCc4c(F)cccc4C(F)(F)F)cc32)ccc1F [Example 25R, 1-((4-fluoro-3-methoxyphenyl)sulfonyl)-7-((2-fluoro-6-(trifluoromethyl)benzyl)oxy)-1,2,3,4-tetrahydroquinoline] | < 0.5 | < 0.5 |  |  |  |  |
| COc1cc(S(=O)(=O)N2c3cc(/C=C(\C)c4c(F)cccc4Cl)ccc3C[C@H](O)[C@H]2C)ccc1F (racemic) [Example 175, rac-(2R,3S)-7-((E)-2-(2-Chloro-6-fluorophenyl)prop-1-en-1-yl)-1-((4-fluoro-3-methoxyphenyl)sulfonyl)-2-methyl-1,2,3,4-tetrahydroquinolin-3-ol] |  |  | 0.5 to 5 | * (a value in the range of 30 to 90) | < 0.5 | ** (a value in the range of greater than 90 to 150) |
| CC1CCC(=Cc2ccc3c(c2)N(S(=O)(=O)c2cccc(C(F)(F)F)c2)C[C@H](CCC(=O)O)O3)CC1 (stereo partly drawn) [Example 95K, 3-((2S)-6-((4-methylcyclo-hexylidene)methyl)-4-((3-(trifluoromethyl)phenyl)sulfonyl)-3,4-dihydro-2H-benzo[b][1,4]oxazin-2-yl)propanoic acid] | 0.5 to 5 | < 0.5 |  |  |  |  |
| O=C(O)CC[C@H]1CN(S(=O)(=O)c2cn(CC(F)F)nc2OCCO)c2cc(/C=C/c3c(Cl)cccc3C(F)(F)F)ccc2O1 [Example 89EF, (S,E)-3-(6-(2-chloro-6-(trifluoromethyl)styryl)-4-((1-(2,2-difluoroethyl)-3-(2-hydroxyethoxy)-1H-pyrazol-4-yl)sulfonyl)-3,4-dihydro-2H-benzo[b][1,4]oxazin-2-yl)propanoic acid] | < 0.5 | < 0.5 |  |  |  |  |
| COc1cc(S(=O)(=O)N2C[C@H](CC(C)(C)C(=O)O)Cc3ccc(/C=C(\C)c4c(F)cccc4Cl)cc32)ccc1F [Example 154C, (S,E)-3-(7-(2-(2-chloro-6-fluorophenyl)prop-1-en-1-yl)-1-((4-fluoro-3-methoxyphenyl)sulfonyl)-1,2,3,4-tetrahydroquinolin-3-yl)-2,2-dimethylpropanoic acid] |  |  | 0.5 to 5 | ** (a value in the range of greater than 90 to 150) | < 0.5 | ** (a value in the range of greater than 90 to 150) |
| COc1cc(S(=O)(=O)C2CC(CCC(=O)O)Oc3ccc(OCc4c(F)cccc4Cl)cc32)ccc1F (stereo not drawn) [Example 179, 3-(6-((2-Chloro-6-fluorobenzyl)oxy)-4-((4-fluoro-3-methoxyphenyl)sulfonyl)chroman-2-yl)propanoic acid] |  |  | 0.5 to 5 | *** (a value in the range of greater than 150 to 200) | < 0.5 | ** (a value in the range of greater than 90 to 150) |
